From ChEMBL document CHEMBL1201862, “PubChem BioAssay data set” (2004)
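Briefly, cells in 96-well plates were exposed to five compound concentrations for 48 h, and endpoints were estimated by linear interpolation. GI50 is the concentration that inhibits growth by half.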 Activity calls are given as the source filed them. Cut-off read from the data, not from the text of the source: active = GI50 up to about 1.1 µM and inactive = higher.

Columns and labels:
Test in all cases: growth of human tumour cells (NCI), 48 h
A549 = test system: A549
SR = test system: SR
HOP-62 = test system: HOP-62
OVCAR-3 = test system: OVCAR-3
NCI-H522 = test system: NCI-H522
OVCAR-8 = test system: OVCAR-8
UO-31 = test system: UO-31
K562 = test system: K562
M14 = test system: M14
UACC-257 = test system: UACC-257
NCI-H226 = test system: NCI-H226
A498 = test system: A498
COLO 205 = test system: COLO 205
EKVX = test system: EKVX
HCT-15 = test system: HCT-15
OVCAR-5 = test system: OVCAR-5
DU-145 = test system: DU-145
MDA-MB-231 = test system: MDA-MB-231
MDA-MB-435 = test system: MDA-MB-435

| SMILES | GI50 (A549) | GI50 (SR) | GI50 (HOP-62) | GI50 (OVCAR-3) | GI50 (NCI-H522) | GI50 (OVCAR-8) | GI50 (UO-31) | GI50 (K562) | GI50 (M14) | GI50 (UACC-257) | GI50 (NCI-H226) | GI50 (A498) | GI50 (COLO 205) | GI50 (EKVX) | GI50 (HCT-15) [µM] | GI50 (OVCAR-5) | GI50 (DU-145) | GI50 (MDA-MB-231) | GI50 (MDA-MB-435) |
| --- | --- | --- | --- | --- | --- | --- | --- | --- | --- | --- | --- | --- | --- | --- | --- | --- | --- | --- | --- |
| CC(Oc1ccc2c(-c3ccc(Cl)cc3)cc(=O)oc2c1)C(=O)O (stereo not drawn) | > 100 µM (inactive) | > 100 µM (inactive) | > 100 µM (inactive) | > 100 µM (inactive) | > 100 µM (inactive) | > 100 µM (inactive) | > 100 µM (inactive) | > 100 µM (inactive) | > 100 µM (inactive) | > 100 µM (inactive) | > 100 µM (inactive) | > 100 µM (inactive) | > 100 µM (inactive) | > 100 µM (inactive) |  |  |  |  |  |
| COC(=O)C12CC(C3CC31)C1CC12 (stereo not drawn) | > 100 µM (inactive) | > 100 µM (inactive) | > 100 µM (inactive) | > 100 µM (inactive) |  | > 100 µM (inactive) | > 100 µM (inactive) | > 100 µM (inactive) | > 100 µM (inactive) | > 100 µM (inactive) | > 100 µM (inactive) | > 100 µM (inactive) | > 100 µM (inactive) |  | > 100 | > 100 µM (inactive) |  |  |  |
| O=c1/c(=C/c2ccccc2[N+](=O)[O-])sc2nnc(-c3cccnc3)n12 | > 100 µM (inactive) | 76.7 µM (inactive) | > 100 µM (inactive) | > 100 µM (inactive) |  | > 100 µM (inactive) | > 100 µM (inactive) | 74.1 µM (inactive) | > 100 µM (inactive) | > 100 µM (inactive) | > 100 µM (inactive) | > 100 µM (inactive) |  | > 100 µM (inactive) | > 100 | > 100 µM (inactive) |  |  |  |
| O=c1n(-c2ccccc2)c(=O)n2n1C1C=CC2C2C(C1)C2(Cl)Cl (stereo not drawn) | > 100 µM (inactive) | > 100 µM (inactive) | > 100 µM (inactive) | > 100 µM (inactive) | > 100 µM (inactive) | > 100 µM (inactive) | > 100 µM (inactive) | > 100 µM (inactive) | > 100 µM (inactive) | > 100 µM (inactive) | > 100 µM (inactive) | > 100 µM (inactive) | > 100 µM (inactive) | > 100 µM (inactive) | > 100 | > 100 µM (inactive) |  |  |  |
| COC(=O)[C@@H]1C=C[C@@H](C#N)n2c(=O)n(-c3ccccc3)c(=O)n21 |  | 20.6 µM (inactive) | 13.3 µM (inactive) | 13.9 µM (inactive) | 14.8 µM (inactive) | 23.3 µM (inactive) | 41.9 µM (inactive) | 37.9 µM (inactive) | 25.9 µM (inactive) | 39.4 µM (inactive) | 15.6 µM (inactive) | 41.1 µM (inactive) | 40.3 µM (inactive) | 35.5 µM (inactive) | 30.1 | 29.4 µM (inactive) | 25.5 µM (inactive) | 19.7 µM (inactive) | 42 µM (inactive) |
| O=C(O)COc1ccc(C(=O)/C(SS/C(C(=O)c2ccc(OCC(=O)O)c(Cl)c2Cl)=C2\C=C(c3ccc(F)cc3)SS2)=C2/C=C(c3ccc(F)cc3)SS2)c(Cl)c1Cl | 40.4 µM (inactive) | 3.76 µM (inactive) | 33.9 µM (inactive) | 9.46 µM (inactive) | 2.38 µM (inactive) | 14 µM (inactive) | 15.7 µM (inactive) | 4.22 µM (inactive) | 23.6 µM (inactive) | 27.5 µM (inactive) | 15.1 µM (inactive) | 31.7 µM (inactive) | 6.76 µM (inactive) | 38.6 µM (inactive) | 9.71 | 32.8 µM (inactive) | 26.6 µM (inactive) |  | 49.4 µM (inactive) |
| [O-][n+]1c(-c2ccccc2)oc2ccccc21 | 4.6 µM (inactive) | > 100 µM (inactive) | 20.4 µM (inactive) | 18.5 µM (inactive) | 12 µM (inactive) | 15.9 µM (inactive) | 13.1 µM (inactive) | 11.9 µM (inactive) | 11 µM (inactive) | 7.71 µM (inactive) | 30.8 µM (inactive) | 17.9 µM (inactive) | 18.6 µM (inactive) | 26.7 µM (inactive) | 6.12 | 33.8 µM (inactive) |  |  |  |
| CN(C)c1nncc2[nH]cnc12 | > 100 µM (inactive) | > 100 µM (inactive) | > 100 µM (inactive) | > 100 µM (inactive) |  | > 100 µM (inactive) | > 100 µM (inactive) | > 100 µM (inactive) | > 100 µM (inactive) | > 100 µM (inactive) | > 100 µM (inactive) | > 100 µM (inactive) | > 100 µM (inactive) | > 100 µM (inactive) | > 100 | > 100 µM (inactive) | > 100 µM (inactive) | > 100 µM (inactive) | > 100 µM (inactive) |
| Cc1ccc(NC(=O)CSC(N)=O)cc1C | > 100 µM (inactive) | 34.7 µM (inactive) | > 100 µM (inactive) | > 100 µM (inactive) | 89.9 µM (inactive) | > 100 µM (inactive) | > 100 µM (inactive) | > 100 µM (inactive) | 40.8 µM (inactive) | > 100 µM (inactive) | > 100 µM (inactive) | 98.4 µM (inactive) | > 100 µM (inactive) | > 100 µM (inactive) | > 100 | > 100 µM (inactive) | > 100 µM (inactive) | > 100 µM (inactive) | > 100 µM (inactive) |
| CCN(CC)CCNc1ccc2ncn3c4cc(O)ccc4c(=O)c1c23 | 3.31 µM (inactive) | 2.26 µM (inactive) | 4.85 µM (inactive) | 3.37 µM (inactive) | 1.22 µM (inactive) | 1.15 µM (inactive) | 5.71 µM (inactive) | 2.11 µM (inactive) | 4.5 µM (inactive) | 5.37 µM (inactive) | 2.82 µM (inactive) | 4.86 µM (inactive) | 2.41 µM (inactive) | 8.77 µM (inactive) | 3.65 | 11 µM (inactive) |  |  |  |
| c1cnc2c(c1)-n1cccc1C1(CCOCC1)NN2 | > 100 µM (inactive) | > 100 µM (inactive) |  | > 100 µM (inactive) | > 100 µM (inactive) | > 100 µM (inactive) | > 100 µM (inactive) | > 100 µM (inactive) | > 100 µM (inactive) |  | > 100 µM (inactive) | > 100 µM (inactive) | > 100 µM (inactive) | > 100 µM (inactive) | > 100 |  |  |  |  |
| CCOc1c(OC)cc(C2c3cc4c(c(OCC)c3CC3COC(=O)C32)OCO4)cc1OC (stereo not drawn) | 2.86 µM (inactive) | 0.247 µM (active) | 1.78 µM (inactive) | 1.12 µM (active) | 2.25 µM (inactive) | 2.11 µM (inactive) | 3.87 µM (inactive) | 1.83 µM (inactive) | 3.15 µM (inactive) | 0.912 µM (active) | 6.84 µM (inactive) | 10.9 µM (inactive) | 2.22 µM (inactive) | 12.7 µM (inactive) | 0.608 | 3.24 µM (inactive) | 2.69 µM (inactive) | 2.17 µM (inactive) | 0.272 µM (active) |
| CCOc1ccc(/N=C/C=C(\Cl)c2ccc3ccccc3c2)cc1 | 29.8 µM (inactive) | 2.52 µM (inactive) | 15.3 µM (inactive) | 15.2 µM (inactive) | 19.5 µM (inactive) | 16.2 µM (inactive) | 15.2 µM (inactive) | 8.55 µM (inactive) | 20.8 µM (inactive) | 15.9 µM (inactive) | 22.4 µM (inactive) | > 58.3 µM (inactive) | 16.7 µM (inactive) | 27.2 µM (inactive) | 13.7 | 17.8 µM (inactive) | 16.7 µM (inactive) | 15.4 µM (inactive) | 19.4 µM (inactive) |
| O=C(CC1C(=O)Nc2ccccc2S1(=O)=O)Nc1cc(Cl)ccc1Cl (stereo not drawn) | 16.7 µM (inactive) | 7.16 µM (inactive) |  | 14.6 µM (inactive) |  | 17.5 µM (inactive) | 15.6 µM (inactive) | 13.9 µM (inactive) | 14.3 µM (inactive) | 35.2 µM (inactive) | 14.8 µM (inactive) | 15.8 µM (inactive) |  | 10.6 µM (inactive) | 11.5 | 24.4 µM (inactive) |  |  |  |
| C=C1C(=O)C23C(CC(OC(C)=O)C1[C@@H]2OC(C)=O)C1(C)C(OC(C)=O)CCC(C)(C)C1C[C@@H]3OC(C)=O (stereo partly drawn) | 1.68 µM (inactive) | 1.57 µM (inactive) | 3.14 µM (inactive) | 1.66 µM (inactive) | 0.453 µM (active) | 0.418 µM (active) | 1.8 µM (inactive) | 0.755 µM (active) | 1.56 µM (inactive) | 1.74 µM (inactive) | 1.69 µM (inactive) | 1.95 µM (inactive) |  | 3.31 µM (inactive) | 1.23 | 1.86 µM (inactive) |  |  |  |
| Nn1c(CCCCCCCCc2nnc(COc3ccc4ccccc4c3O)n2N)nnc1COc1ccc2ccccc2c1O | 25.1 µM (inactive) |  |  |  | 14.6 µM (inactive) |  | 28.4 µM (inactive) | 41.7 µM (inactive) | 30.1 µM (inactive) | 39.9 µM (inactive) | 17.9 µM (inactive) | 35.8 µM (inactive) | 19.5 µM (inactive) | 43.7 µM (inactive) | 22.3 | 14.2 µM (inactive) | 33.8 µM (inactive) | 23.2 µM (inactive) | 29.9 µM (inactive) |
| CSC[S+]([O-])C[C@H](CO)NC(=O)/C=C/c1c(C)[nH]c(=O)[nH]c1=O (stereo partly drawn) | 1.15 µM (inactive) | 2.04 µM (inactive) | 1.15 µM (inactive) | 1.13 µM (inactive) | 0.731 µM (active) | 1.43 µM (inactive) | 1.61 µM (inactive) | 1.32 µM (inactive) | 1.16 µM (inactive) | 1.38 µM (inactive) | 0.67 µM (active) | 0.378 µM (active) | 1.43 µM (inactive) | 1.87 µM (inactive) | 1.83 | 2.06 µM (inactive) |  |  |  |
